Experimental data: ChEMBL document CHEMBL4334530, “Glucoconjugated Monoterpene Indole Alkaloids from Uncaria rhynchophylla” (J Nat Prod, 2019)
Where a name gives a salt, the structure may show the parent alone.

Legend:
[1] = tested on: MCF7; assay: Cytotoxicity against human MCF7 cells assessed as cell growth inhibition measured after 48 hrs by MTT assay; assay type: functional, cell-based; conditions: MCF7, 48 h
[2] = tested on: HepG2; assay: Cytotoxicity against human HepG2 cells assessed as cell growth inhibition measured after 48 hrs by MTT assay; assay type: functional, cell-based; conditions: HepG2, 48 h
[3] = tested on: A549; assay: Cytotoxicity against human A549 cells assessed as cell growth inhibition measured after 48 hrs by MTT assay; assay type: functional, cell-based; conditions: A549, 48 h
[4] = biological target: Acetylcholinesterase (Electrophorus electricus, UniProt O42275); assay: Inhibition of electric eel AChE using acetylthiocholine iodide as substrate preincubated for 20 mins followed by substrate addition measured for 30 mins by Ellman's method
Sequence of Acetylcholinesterase (O42275 whole entry): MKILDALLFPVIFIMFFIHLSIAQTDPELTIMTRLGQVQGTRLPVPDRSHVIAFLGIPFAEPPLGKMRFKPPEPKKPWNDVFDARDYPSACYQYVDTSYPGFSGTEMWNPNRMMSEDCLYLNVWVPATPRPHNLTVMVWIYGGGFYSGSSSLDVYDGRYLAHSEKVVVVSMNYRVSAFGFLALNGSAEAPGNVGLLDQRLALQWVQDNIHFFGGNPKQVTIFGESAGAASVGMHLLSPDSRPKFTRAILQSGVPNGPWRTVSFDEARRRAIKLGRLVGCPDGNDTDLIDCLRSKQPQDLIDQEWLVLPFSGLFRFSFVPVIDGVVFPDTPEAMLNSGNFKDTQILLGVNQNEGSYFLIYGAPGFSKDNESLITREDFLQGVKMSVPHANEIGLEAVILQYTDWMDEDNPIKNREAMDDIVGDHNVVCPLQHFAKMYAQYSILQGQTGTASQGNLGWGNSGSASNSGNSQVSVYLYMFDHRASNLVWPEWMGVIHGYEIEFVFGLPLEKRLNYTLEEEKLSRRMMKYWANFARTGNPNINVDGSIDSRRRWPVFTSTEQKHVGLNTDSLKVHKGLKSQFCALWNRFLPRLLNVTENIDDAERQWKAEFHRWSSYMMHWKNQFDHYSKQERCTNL

C=C[C@H]1[C@H](O[C@@H]2O[C@H](CO)[C@@H](O)[C@H](O)[C@H]2O)OC=C2C(=O)N3Cc4c([nH]c5cc(O)ccc5c4=O)[C@H]3C[C@H]21
IC50 [1]: > 80 µM | IC50 [2]: > 80 µM | IC50 [3]: > 80 µM

C=C[C@H]1[C@H](O[C@@H]2O[C@H](CO)[C@@H](O)[C@H](O)[C@H]2O[C@@H]2O[C@H](CO)[C@@H](O)[C@H](O)[C@H]2O)OC=C2C(=O)N3CCc4c([nH]c5ccccc45)[C@H]3C[C@H]21
IC50 [1]: > 80 µM | IC50 [2]: > 80 µM | IC50 [3]: > 80 µM

C=C[C@H]1[C@H](O[C@@H]2O[C@H](CO)[C@@H](O)[C@H](O)[C@H]2O)OC=C2C(=O)N3CCc4c([nH]c5ccccc45)[C@@H]3C[C@H]21
IC50 [1]: > 80 µM | IC50 [2]: > 80 µM | IC50 [3]: > 80 µM

C=C[C@H]1[C@H](O[C@@H]2O[C@H](CO)[C@@H](O)[C@H](O)[C@H]2O[C@@H]2O[C@H](CO)[C@@H](O)[C@H](O)[C@H]2O)OC=C2C(=O)N3Cc4c([nH]c5cc(O)ccc5c4=O)[C@H]3C[C@H]21
IC50 [1]: > 80 µM | IC50 [2]: > 80 µM | IC50 [3]: > 80 µM

O=C1C2=CO[C@@H](O[C@@H]3O[C@H](CO)[C@@H](O)[C@H](O)[C@H]3O[C@@H]3O[C@H](CO)[C@@H](O)[C@H](O)[C@H]3O)[C@H]([C@H](O)CO)[C@@H]2C[C@@H]2c3[nH]c4cc(O[C@@H]5O[C@H](CO)[C@@H](O)[C@H](O)[C@H]5O)ccc4c3CCN12
IC50 [1]: > 80 µM | IC50 [2]: > 80 µM | IC50 [3]: > 80 µM

C=C[C@H]1[C@H](O[C@@H]2O[C@H](CO)[C@@H](O)[C@H](O)[C@H]2O)OC=C2C(=O)N3CCc4c([nH]c5ccccc45)[C@H]3C[C@H]21
IC50 [1]: > 80 µM | IC50 [2]: > 80 µM | IC50 [3]: > 80 µM

C=C[C@H]1[C@H](O[C@@H]2O[C@H](CO)[C@@H](O)[C@H](O)[C@H]2O)OC=C(C(=O)OC)[C@H]1Cc1nc(C(=O)OC)cc2c1[nH]c1ccccc12
IC50 [1]: > 80 µM | IC50 [2]: > 80 µM | IC50 [3]: > 80 µM

COC(=O)C1=CO[C@@H](O[C@@H]2O[C@H](CO)[C@@H](O)[C@H](O)[C@H]2O)[C@@H]2[C@H](O)CN3CCc4c([nH]c5ccccc45)[C@@H]3C[C@H]12
IC50 [1]: > 80 µM | IC50 [2]: > 80 µM | IC50 [3]: > 80 µM

C=C[C@H]1[C@H](O[C@@H]2O[C@H](CO)[C@@H](O)[C@H](O)[C@H]2O)OC=C2C(=O)N3CC[C@@]4(C(=O)Nc5cc(O)ccc54)[C@H]3C[C@H]21
IC50 [1]: > 80 µM | IC50 [2]: > 80 µM | IC50 [3]: > 80 µM

C=C[C@H]1[C@H](O[C@@H]2O[C@H](CO)[C@@H](O)[C@H](O)[C@H]2O[C@@H]2O[C@H](CO)[C@@H](O)[C@H](O)[C@H]2O)OC=C2C(=O)N3CCc4c([nH]c5cc(O[C@@H]6O[C@H](CO)[C@@H](O)[C@H](O)[C@H]6O)ccc45)[C@H]3C[C@H]21
IC50 [1]: > 80 µM | IC50 [2]: > 80 µM | IC50 [3]: > 80 µM

C=C[C@H]1COC(=O)C2=CN3CCc4c([nH]c5cccc(O[C@@H]6O[C@H](CO)[C@@H](O)[C@H](O)[C@H]6O)c45)[C@@H]3C[C@H]21
IC50 [1]: > 80 µM | IC50 [2]: > 80 µM | IC50 [3]: > 80 µM | IC50 [4]: 10.5 µM

C=C[C@H]1[C@H](O[C@@H]2O[C@H](CO)[C@@H](O)[C@H](O)[C@H]2O)OC=C(C(=O)OC)[C@H]1C[C@@H]1N[C@H](C(=O)OC)Cc2c1[nH]c1ccccc21
IC50 [1]: > 80 µM | IC50 [2]: > 80 µM | IC50 [3]: > 80 µM

C=CC1C(C[C@@H]2NCCc3c2[nH]c2ccccc32)C(C(=O)O)=CO[C@H]1O[C@@H]1O[C@H](CO)[C@@H](O)[C@H](O)[C@H]1O (some centres undefined) [STRICTOSIDINIC ACID]
IC50 [1]: > 80 µM | IC50 [2]: > 80 µM | IC50 [3]: > 80 µM

COC(=O)C1=CO[C@@H](O[C@@H]2O[C@H](CO)[C@@H](O)[C@H](O)[C@H]2O)[C@@H]2[C@@H]3CN4CCc5c([nH]c6ccccc56)[C@]4(C[C@H]12)O3
IC50 [1]: > 80 µM | IC50 [2]: > 80 µM | IC50 [3]: > 80 µM

C=C[C@H]1[C@H](O[C@@H]2O[C@H](CO)[C@@H](O)[C@H](O)[C@H]2O)OC=C2C(=O)N3CCc4c([nH]c5ccc(O)cc45)[C@@H]3C[C@H]21
IC50 [1]: > 80 µM | IC50 [2]: > 80 µM | IC50 [3]: > 80 µM

COC(=O)C1=CO[C@@H](O[C@@H]2O[C@H](CO)[C@@H](O)[C@H](O)[C@H]2O)[C@H]2[C@@H]1C[C@@H]1N(CC[C@]13C(=O)Nc1ccccc13)C[C@@H]2O
IC50 [1]: > 80 µM | IC50 [2]: > 80 µM | IC50 [3]: > 80 µM

C=C[C@H]1CN2CC[C@]3(C(=O)Nc4ccccc43)[C@@H]2C[C@@H]1/C(=C/OC)C(=O)O[C@@H]1O[C@H](CO)[C@@H](O)[C@H](O)[C@H]1O
IC50 [1]: > 80 µM | IC50 [2]: > 80 µM | IC50 [3]: > 80 µM

C=C[C@H]1[C@H](O[C@@H]2O[C@H](CO)[C@@H](O)[C@H](O)[C@H]2O)OC=C(C(=O)OC)[C@H]1C[C@@H]1N[C@H](C(=O)O)Cc2c1[nH]c1ccccc21
IC50 [1]: > 80 µM | IC50 [2]: > 80 µM | IC50 [3]: > 80 µM

COc1cccc2c1C(=O)c1c(O)c3c(c(O)c1C2=O)C[C@@](O)(C(=O)CO)C[C@@H]3O[C@H]1C[C@H](N)[C@H](O)[C@H](C)O1 [DOXORUBICIN HYDROCHLORIDE]
IC50 [1]: < 1 µM | IC50 [2]: < 1 µM | IC50 [3]: < 1 µM

COC(=O)C1=CO[C@@H](O[C@@H]2O[C@H](CO)[C@@H](O)[C@H](O)[C@H]2O)[C@H]2[C@@H]1C[C@H]1c3[nH]c4ccccc4c3CCN1[C@H]2CO
IC50 [1]: > 80 µM | IC50 [2]: > 80 µM | IC50 [3]: > 80 µM

C=C[C@H]1[C@H](O[C@@H]2O[C@H](CO)[C@@H](O)[C@H](O)[C@H]2O[C@@H]2O[C@H](CO)[C@@H](O)[C@H](O)[C@H]2O)OC=C2C(=O)N3CC[C@]4(C(=O)Nc5cc(O)ccc54)[C@H]3C[C@H]21
IC50 [1]: > 80 µM | IC50 [2]: > 80 µM | IC50 [3]: > 80 µM

C=C[C@H]1[C@H](O[C@@H]2O[C@H](CO)[C@@H](O)[C@H](O)[C@H]2O)OC=C2C(=O)N3CCc4c([nH]c5cc(O)ccc45)[C@H]3C[C@H]21
IC50 [1]: > 80 µM | IC50 [2]: > 80 µM | IC50 [3]: > 80 µM

C=C[C@H]1[C@H](O[C@@H]2O[C@H](CO)[C@@H](O)[C@H](O)[C@H]2O[C@@H]2O[C@H](CO)[C@@H](O)[C@H](O)[C@H]2O)OC=C2C(=O)N3CC[C@@]4(C(=O)Nc5cc(O)ccc54)[C@H]3C[C@H]21
IC50 [1]: > 80 µM | IC50 [2]: > 80 µM | IC50 [3]: > 80 µM

COC(=O)C1=CO[C@@H](O[C@@H]2O[C@H](CO)[C@@H](O)[C@H](O)[C@H]2O)[C@H]2[C@@H]1C[C@@H]1c3[nH]c4ccccc4c3CCN1[C@H]2CO
IC50 [1]: > 80 µM | IC50 [2]: > 80 µM | IC50 [3]: > 80 µM

C=C[C@H]1[C@H](O[C@@H]2O[C@H](CO)[C@@H](O)[C@H](O)[C@H]2O)OC=C2C(=O)N3[C@H](C(=O)O)Cc4c([nH]c5ccccc45)[C@@H]3C[C@H]21
IC50 [1]: > 80 µM | IC50 [2]: > 80 µM | IC50 [3]: > 80 µM

C=C[C@H]1CN2CC[C@@]3(C(=O)Nc4ccccc43)[C@@H]2C[C@@H]1/C(=C/OC)C(=O)O[C@@H]1O[C@H](CO)[C@@H](O)[C@H](O)[C@H]1O
IC50 [1]: > 80 µM | IC50 [2]: > 80 µM | IC50 [3]: > 80 µM
